Patent publication US9527885B2, “Hepatitis C virus inhibitors” (BRISTOL-MYERS SQUIBB COMPANY, priority 2011, dated 2016)
Like-named read-outs stand apart in the source and are kept apart here.

Tests used:
[1] = system: HCV genotype 1a (H77 strain) replicon in HUH-7 cells; experiment: HCV replicon luciferase reporter assay, genotype 1a; type: cell-based; settings: 3 days incubation
From the text: (§1) An HCV replicon whole cell system was established as described by Lohmann V, Korner F, Koch J, Herian U, Theilmann L, Bartenschlager R., Science 285(5424):110-3 (1999) and modified to introduce a luciferase reporter, as first described by Krieger et al (Krieger N, Lohmann V, and Bartenschlager R, J. Virol. 75(10):4614-4624 (2001)). CDNA encoding a humanized form of the Renilla luciferase gene and a linker sequence fused directly to the 3′-end of the luciferase gene were introduced into the replicon construct using an Asc1 restriction site located in core, directly upstream of the neomycin marker gene. The adaptive mutation at position 1179 (serine to isoleucine) was also introduced (Blight K J, Kolykhalov, A A, Rice, C M, Science 290(5498):1972-1974). A stable cell line constitutively expressing this HCV replicon construct was generated by first linearizing plasmid DNAs with ScaI. RNA transcripts were synthesized in vitro using the T7 MegaScript transcription kit (Ambion, Austin, Tex.) according to manufacturer's directions. In vitro transcripts of the cDNA were transfected into the human hepatoma cell line, HUH-7. […] Resulting cell lines were characterized for positive and negative strand RNA production and protein production over time.
A stable HCV replicon luciferase reporter cell line representing the genotype 1a H77 strain (Yanagi M, Purcell R H, Emerson S U, et al. Transcripts from a single full-length cDNA clone of hepatitis C virus are infectious when directly transfected into the liver of a chimpanzee. Proc Natl Acad Sci USA 1997; 94(16):8738-8743) was generated as described previously for the genotype 1b (Con1) replicon luciferase cell line. The replicon construct was modified by introducing mutations were introduced into the genes encoding the NS3 helicase domain (proline replaced by leucine at position 1496) and NS5A (serine to isoleucine at position 2204) to improve replication in cell culture.
(§2) HCV replicon luciferase assays were developed to monitor the inhibitory effects of compounds described in the disclosure on HCV genotypes 1a and 1b viral replication. HUH-7 cells, constitutively expressing the HCV replicon, were grown in Dulbecco's Modified Eagle Media (DMEM) (Gibco-BRL) containing 10% Fetal calf serum (FCS) (Sigma) and 1 mg/mL G418 (Gibco-BRL). Compounds were serially diluted 3 folds in DMSO for a twenty-point titration and subsequently transferred to sterile 384-well tissue-culture treated plates (Corning cat #3571). The plates were then seeded with 50 μL of cells at a density of 3.0×10^3 cells/well in DMEM containing 4% FCS (final DMSO concentration at 0.5%). After 3 days incubation at 37° C., cells were analyzed for Renilla Luciferase activity using the EnduRen as substrate (Promega cat #E6485). The EnduRen substrate was diluted in DMEM and then added to the plates to a final concentration of 7.5 μM. The plates were incubated for 2 hrs at 37° C. and then read immediately for 30 seconds with Viewlux Imager (PerkinElmer) using a luminescence program. To assess cytotoxicity of compounds, CC50 values were generated by multiplexing the EnduRen-containing plates with Cell Titer-Blue (Promega, cat # G8082). Cell-Titer Blue (3 μL) was added to each well and incubated for 8 hrs at 37° C. The fluorescence signal from each well was read, with an excitation wavelength at 525/10 nm and an emission wavelength of 598/10 nm, using the Viewlux Imager.
(§3) The EC50 values for compounds were calculated by using a four-parameter logistic equation: y=A+((B−A)/(1+((C/x)^D))), where A and B denotes minimal and maximal % inhibition, respectively, C is the EC50, D is the hill slope and x represents compound concentration.

[2] = system: HCV genotype 1b (Con1) replicon in HUH-7 cells; experiment: HCV replicon luciferase reporter assay, genotype 1b; type: cell-based; settings: 3 days incubation
From the text: as §1, with “time. […]” for “time.”
as §2, §3

[3] = Hepatitis C virus, Huh-7, 72 h, HCV genotype 1a replicon luciferase reporter, range class, read-out: LE_1a (EC50, range)
[4] = Hepatitis C virus, 72 h, HCV genotype 1b replicon luciferase reporter, range class, read-out: LE_1b (EC50, range)

| Compound | EC50 ([1]; HCV genotype 1a replicon luciferase, read-out: LE_1a (EC50)) | EC50 ([2]; HCV genotype 1b replicon luciferase, read-out: LE_1b (EC50)) | EC50 [1, 3] | EC50 [2, 4] |
| --- | --- | --- | --- | --- |
| 1,1,1-trifluoro-2-methylpropan-2-yl ((2R,6S,7R,9S,13aS,14aR,16aS,Z)-7-ethyl-14a-(((1-(fluoromethyl)cyclopropyl)sulfonyl)carbamoyl)-9-methyl-2-((4-methyl-3,4-dihydro-2H-[1,4]oxazino[2,3-f]isoquinolin-7-yl)oxy)-5,16-dioxo-1,2,3,5,6,7,8,9,10,11,13a,14,14a,15,16,16a-hexadecahydrocyclopropa[e]pyrrolo[1,2-a][1,4]diazacyclopentadecin-6-yl)carbamate [Compound 5319] | 33.6 nM | 14.2 nM | – | – |
| COc1cnc(O[C@@H]2C[C@H]3C(=O)N[C@]4(C(=O)NS(=O)(=O)C5CC5)C[C@H]4/C=C\CC[C@@H](C)C[C@@H](C)[C@H](NC(=O)OC(C)(C)C(F)(F)F)C(=O)N3C2)c2ccccc12 [Compound 3, 1,1,1-trifluoro-2-methylpropan-2-yl ((2R,6S,7R,9R,13aS,14aR,16aS,Z)-14a-((cyclopropylsulfonyl)carbamoyl)-2-((4-methoxyisoquinolin-1-yl)oxy)-7,9-dimethyl-5,16-dioxo-1,2,3,5,6,7,8,9,10,11,13a,14,14a,15,16,16a-hexadecahydrocyclopropa[e]pyrrolo[1,2-a][1,4]diazacyclopentadecin-6-yl)carbamate] | – | – | < 5.46 nM | < 5.46 nM |
| COCCOc1cc2c(Cl)cccc2c(O[C@@H]2C[C@H]3C(=O)N[C@]4(C(=O)NS(=O)(=O)C5(C)CC5)C[C@H]4/C=C\CC[C@@H](C)C[C@@H](C)[C@H](NC(=O)OC(C)(C)C(F)(F)F)C(=O)N3C2)n1 [Compound 1114, 1,1,1-trifluoro-2-methylpropan-2-yl ((2R,6S,7R,9R,13aS,14aR,16aS,Z)-2-((5-chloro-3-(2-methoxyethoxyl)isoquinolin-1-yl)oxy)-7,9-dimethyl-14a-(((1-methylcyclopropyl)sulfonyl)carbamoyl)-5,16-dioxo-1,2,3,5,6,7,8,9,10,11,13a,14,14a,15,16,16a-hexadecahydrocyclopropa[e]pyrrolo[1,2-a][1,4]diazacyclopentadecin-6-yl)carbamate] | – | – | < 5.46 nM | < 5.46 nM |
| C[C@@H]1CCC[C@H](O)[C@@H]2C[C@@]2(C(=O)NS(=O)(=O)C2(C)CC2)NC(=O)[C@@H]2C[C@@H](Oc3ncc(OC4CC4)c4ccccc34)CN2C(=O)[C@@H](NC(=O)OC(C)(C)C(F)(F)F)[C@H](C)C1 [Compound 2002, 1,1,1-trifluoro-2-methylpropan-2-yl ((2R,6S,7R,9R,13S,13aR,14aR,16aS)-2-((4-cyclopropoxyisoquinolin-1-yl)oxy)-13-hydroxy-7,9-dimethyl-14a-(((1-methylcyclopropyl)sulfonyl)carbamoyl)-5,16-dioxooctadecahydrocyclopropa[e]pyrrolo[1,2-a][1,4]diazacyclopentadecin-6-yl)carbamate] | – | – | 4.82 to 103 nM | 4.82 to 103 nM |
| COc1ccc2c(O[C@@H]3C[C@H]4C(=O)N[C@]5(C(=O)NS(=O)(=O)C6(C)CC6)C[C@H]5/C=C\CC[C@H](C)C[C@@H](C)[C@H](NC(=O)OC(C)(C)C(F)(F)F)C(=O)N4C3)nc(N(C)C)cc2c1 [Compound 3116, 1,1,1-trifluoro-2-methylpropan-2-yl ((2R,6S,7R,9S,13aS,14aR,16aS,Z)-2-((3-(dimethylamino)-6-methoxyisoquinolin-1-yl)oxy)-7,9-dimethyl-14a-(((1-methylcyclopropyl)sulfonyl)carbamoyl)-5,16-dioxo-1,2,3,5,6,7,8,9,10,11,13a,14,14a,15,16,16a-hexadecahydrocyclopropa[e]pyrrolo[1,2-a][1,4]diazacyclopentadecin-6-yl)carbamate] | – | – | 4.82 to 103 nM | < 5.46 nM |
| COc1ccc2c(O[C@@H]3C[C@H]4C(=O)N[C@]5(C(=O)NS(=O)(=O)C6(C)CC6)C[C@H]5/C=C\CC[C@@H](C)C[C@@H](C)[C@H](NC(=O)OC(C)(C)C(F)(F)F)C(=O)N4C3)nc(N(C)C)cc2c1 [Compound 3117, 1,1,1-trifluoro-2-methylpropan-2-yl ((2R,6S,7R,9R,13aS,14aR,16aS,Z)-2-((3-(dimethylamino)-6-methoxyisoquinolin-1-yl)oxy)-7,9-dimethyl-14a-(((1-methylcyclopropyl)sulfonyl)carbamoyl)-5,16-dioxo-1,2,3,5,6,7,8,9,10,11,13a,14,14a,15,16,16a-hexadecahydrocyclopropa[e]pyrrolo[1,2-a][1,4]diazacyclopentadecin-6-yl)carbamate] | – | – | < 5.46 nM | < 5.46 nM |
| COc1ccc2c(O[C@@H]3C[C@H]4C(=O)N[C@]5(C(=O)NS(=O)(=O)C6(CF)CC6)C[C@H]5/C=C\CC[C@@H](C)C[C@@H](C)[C@H](NC(=O)OC(C)(C)C(C)(F)F)C(=O)N4C3)nc(N(C)C)cc2c1 [Compound 3125, 3,3-difluoro-2-methylbutan-2-yl ((2R,6S,7R,9R,13aS,14aR,16aS,Z)-2-((3-(dimethylamino)-6-methoxyisoquinolin-1-yl)oxy)-14a-(((1-(fluoromethyl)cyclopropyl)sulfonyl)carbamoyl)-7,9-dimethyl-5,16-dioxo-1,2,3,5,6,7,8,9,10,11,13a,14,14a,15,16,16a-hexadecahydrocyclopropa[e]pyrrolo[1,2-a][1,4]diazacyclopentadecin-6-yl)carbamate] | – | – | 4.82 to 103 nM | < 5.46 nM |
| COc1ccc2c(O[C@@H]3C[C@H]4C(=O)N[C@]5(C(=O)NS(=O)(=O)C6(CF)CC6)C[C@H]5/C=C\CC[C@H](C)C[C@@H](C)[C@H](NC(=O)OC(C)(C)C(F)(F)F)C(=O)N4C3)nc(N(C)C)cc2c1 [Compound 3126, 1,1,1-trifluoro-2-methylpropan-2-yl ((2R,6S,7R,9S,13aS,14aR,16aS,Z)-2-((3-(dimethylamino)-6-methoxyisoquinolin-1-yl)oxy)-14a-(((1-(fluoromethyl)cyclopropyl)sulfonyl)carbamoyl)-7,9-dimethyl-5,16-dioxo-1,2,3,5,6,7,8,9,10,11,13a,14,14a,15,16,16a-hexadecahydrocyclopropa[e]pyrrolo[1,2-a][1,4]diazacyclopentadecin-6-yl)carbamate] | – | – | 4.82 to 103 nM | 4.82 to 103 nM |
